The nature of this assay: Thermal tail-flick test on rats. It is filed as in vivo, rat. The following applies: 3 mg/kg injection in saline, against placebo, TFL measured approximately every hour. The method, then: Therapeutic Solutions: The compound 2 90 mg was dissolved in 30 ml of saline solution and the injection volume was calculated as 1 ml/kg to achieve 3 mg/kg of compound of Formula 31. The placebo solution was identical except it is devoid of any drug.
Tail-Flick Test: The experimentation was started by selecting ten at least 90-100 days old and were all weighed to determine the volume of experimental and placebo solution. Each rat, was habituated for three days to handling and the tail flick procedure and without heat exposure. In the administration, each animal was only used for one day of experiments, and given only one dose of drug, or placebo solution. The technique of D'Amour and Smith (1941) relies on latency to flick of the tail from onset of a focused beam of intense light. This method, employed for decades, has now been augmented by the ability to monitor temperature at the site of exposure. Columbus Instruments model TF-2 model was warmed, on the day of the experiment, for at least 30 minutes. The intensity of the lamp was adjusted so that baseline tail-flick latency for rats is equal to approximately 2.0 seconds. The intensity was set to 40% as this was determined to be the ideal intensity from the intensity response curve. […] The baseline value was determined for each animal prior to injection. The TFL was measured approximately every hour. The semilog means were calculated.

Regarding `CC12CC3CC(C)(C1)CC(NC(=O)C1(CN)CCCCC1)(C3)C2` [Formula 2], the “time course of antinociceptive effect in the thermal tail flick test (FIG. 1)” value was “antinociceptive effect”.

Source of the values: patent US20110306600A1, “NOVEL THERAPEUTIC COMPOUNDS” (Grunenthal GmbH, priority 2010, published 2011).
